Results on 70 molecules are retold here after the pKa sets of Baltruschat and Czodrowski (2020).

Molecules are shown by their SMILES. Where a SMILES comes first, the peptide text is derived from it.

For `O=C1C=C(O)C(=O)c2ccccc21`, the pKa (acidic group) came to 3.19.

`COc1ccc(NC(C)=S)cc1`: for the setting “acidic group”, the pKa is 12.

In the case of `COc1ccc(C(=S)Nc2ccccc2)cc1`, the pKa (acidic group) stood at 11.3.

In the case of `O=[N+]([O-])c1ccc(O)c(C[NH+]2CCOCC2)c1`, for the setting “acidic group”, the pKa is 5.61.

Consider `c1coc(C2CN3CCC2CC3)c1` (configuration not stated), for which, under “basic group”, the pKa amounted to 10.

`O=C(O)C#CI`: under “acidic group”, the pKa was found to be 2.

For the molecule `CC(O)C(C(=O)O)c1ccc(-c2ccccc2)cc1` (configuration not stated), the pKa (acidic group) was 4.3.

Where the note is “basic group”, `C(C[NH2+]CCc1nnn[n-]1)NCCc1nnn[n-]1` came in with a pKa of 6.3.

With `Cn1cc([O-])nc1N`, under “basic group”, the pKa came out at 13.4.

The molecule `Clc1cn[nH]c1` returned a pKa (basic group) of 1.24.

Molecule `CN(C)CCOC(C)(c1ccccc1)c1ccccn1` (configuration not stated) came in with a pKa (basic group) of 9.2.

With `O=C1NC(=O)[C@@H]2CCCC[C@H]12`, where the note is “acidic group”, the pKa was found to be 9.72.

Consider `Cc1ccc(C(=O)O)c(C)c1`, for which the pKa (acidic group) was found to be 4.18.

Where the note is “acidic group”, `CC(C)C1CC(CC(=O)O)[NH2+]C1C(=O)O` (configuration not stated) showed a pKa of 2.1.

Under “acidic group”, `O=C([O-])c1cc(O)c(O)c(C(=O)O)[o+]1` showed a pKa of 1.8.

In turn, `CC(C)C(N)C(N)=O` (configuration not stated) yielded a pKa (acidic group) of 8.

For `CN(C)c1ccc(C(O)c2ccc(N(C)C)cc2)cc1`, the pKa (basic group) came out at 5.61.

The molecule `O=C(CCNCCC(=O)c1ccccc1)c1ccccc1` showed a pKa (basic group) of 8.69.

Molecule `c1ccc(NC2=NCCCO2)cc1` gave a pKa (basic group) of 9.33.

For the setting “acidic group”, `CC(=O)ONc1cc(=O)n(C)c(=O)n1C` showed a pKa of 7.01.

Regarding `CC(=O)[C@H]1CC=CC[C@@H]1C(=O)O`, the pKa (acidic group) worked out at 4.4.

Take `Cn1cnc2ncn(C)c2c1=O`: the pKa (basic group) was 2.16.

As for `CC1(N)C[C@]1(C)N` (some centres not stated), the pKa (basic group) was 9.03.

For `O=C(CCN1CCOCC1)c1cccc(Br)c1`, the pKa (basic group) amounted to 6.8.

For `O=C(CCN1CCCCC1)c1ccccc1`, the pKa (basic group) is 9.23.

In turn, `C[NH+](C)CCCCCCCNC(=O)/C=N/O` displayed a pKa (acidic group) of 8.98.

In the case of `CCC(=O)NBr`, under “acidic group”, the pKa was 8.2.

Under “acidic group”, `CCC1(C)CC(=O)NC1=O` (configuration not stated) registered a pKa of 9.34.

For the setting “acidic group”, `CNCC(N)=O` returned a pKa of 8.35.

In turn, `CCc1ccnc2c1ccc1cccnc12` yielded a pKa (basic group) of 5.44.

As to `C=C(C)C(=O)OCCNCCCC`, the pKa (basic group) was 9.12.

`NC(=S)Nc1ccc(Cl)cc1` came in with a pKa (acidic group) of 12.3.

`CCCCCCCCN` registered a pKa (basic group) of 10.8.

As for `Cc1ccc(-c2cnc(-c3ccc(C)cc3)o2)cc1`, the pKa (basic group) worked out at 1.12.

The molecule `Cn1ncc2cncnc21` gave a pKa (basic group) of 2.5.

`NC(=S)Nc1cccc([N+](=O)[O-])c1` returned a pKa (acidic group) of 11.1.

Where the note is “acidic group”, `COC(=O)/C(=N/O)c1ccccc1` showed a pKa of 8.87.

`NCC(=O)N1CCC[C@H]1C(=O)[O-]` (H-Gly-Pro-OH) yielded a pKa (basic group) of 8.49.

The molecule `C[Se]CCN` registered a pKa (basic group) of 9.53.

With `O=S1(=O)N=C[N-]c2nc[nH]c21`, the pKa (acidic group) came to 11.

With `Clc1ccc(/C=C/c2nnnn2-c2ccccc2)cc1`, the pKa (basic group) was -2.54.

As to `Cc1ccc(C(=S)Nc2ccc(Cl)c(Cl)c2)cc1`, the pKa (acidic group) was determined as 10.2.

Molecule `COc1ccc2ncccc2c1` returned a pKa (basic group) of 5.05.

With `O=S1(=O)N=CNc2ncccc21`, the pKa (acidic group) amounted to 7.03.

`CC(C)N1C2CCCC21` (configuration not stated) had a pKa (basic group) of 8.31.

In turn, `S=C(Nc1ccc(Cl)cc1)c1cccc(Br)c1` displayed a pKa (acidic group) of 10.1.

Under “basic group”, `CNC(=O)NC` gave a pKa of 1.02.

With `CCSC(C)O` (configuration not stated), for the setting “acidic group”, the pKa is 14.3.

For `O=[N+]([O-])c1ccc(S(=O)(=O)O)cc1`, the pKa (acidic group) was -7.15.

With `CCOC(=O)COc1ccc(C(=O)c2ccc([O-])c(CN)c2)c(Cl)c1Cl`, the pKa (basic group) was 10.6.

Under “basic group”, `N#Cc1cncc2ccccc12` returned a pKa of 2.04.

With `OCCN1CCN(CCO)CC1`, the pKa (acidic group) was found to be 7.75.

With `CCc1cc(CC)c(OC)c(C(=O)NC[C@H]2CCCN2CC)c1[O-]`, the pKa (basic group) was 9.54.

On to `NC1=NS(=O)(=O)[N-]c2nc[nH]c21`, for which the pKa (acidic group) amounted to 12.2.

For the setting “basic group”, `Nc1nnnn1Cc1ccccc1` gave a pKa of 1.44.

As to `O=C([O-])[C@@H](NCC[NH2+][C@@H](C(=O)[O-])c1ccccc1O)c1ccccc1O`, the pKa runs as follows: (acidic group) 8.76; (basic group) 6.36.

Molecule `Cn1/c(=N/N)ccc2ccccc21` yielded a pKa (basic group) of 9.17.

For the molecule `CS[C@H]1CCC[C@@H]1N(C)C`, the pKa (basic group) turned out to be 8.85.

The molecule `Nc1ccc2cc3c(ccc4ccccc43)nc2c1` showed a pKa (basic group) of 7.42.

Under “basic group”, `c1ccc(-c2ncc[nH]2)cc1` displayed a pKa of 6.39.

As for `CNCCN(C)CCN`, the pKa (basic group) stood at 10.2.

In turn, `Brc1cn[nH]c1` displayed a pKa (acidic group) of 12.7.

Under “basic group”, `Cc1nc(N)nc(N)n1` registered a pKa of 4.59.

Molecule `CCCCCCN` returned a pKa (basic group) of 10.7.

In the case of `CC(C)C1C(=O)c2ccccc2C1=O`, the pKa (acidic group) stood at 7.4.

Regarding `CN(C)c1ccc(C(=O)O)cc1`, the pKa worked out at 4.96 (acidic group) and 2.57 (basic group).

`O=C(NO)c1ccccc1O` returned a pKa (acidic group) of 7.39.

Consider `c1ccc(-c2nc3ccccc3[nH]2)cc1`, for which the pKa (acidic group) is 11.9.

Where the note is “basic group”, `Cc1nc2cc(N)ccc2n1C` gave a pKa of 7.

With `O=C(O)c1coc2ccccc12`, the pKa (acidic group) was 4.18.

For orientation: pKa means the pH at which an ionisable group is half protonated. A low value points to a group that gives up its proton readily.
